According to US12213993B2, “Coated medicinal clay compositions, pharmaceutical compositions, and delivery of cation sources and methods of use thereof” (priority 2021, dated 2025):

Columns and labels:
[1] = ion pair with chloride; cited from earlier work
[2] = Calculation of chloride binding by cations of clay/silver wound dressing in wound exudate; type: physicochemical; settings: without the chelation of chloride provided by the medicinal clay
Description: Medicinal clay in a pharmaceutical composition was applied to an exemplary wound dressing, which incorporated an additional therapeutic cation, silver. Wound exudate is known to contain anions, which can interfere with the medicinal qualities of the medicinal clay and additional therapeutic agents when the medicinal clay comes into contact with the moisture of the wound exudate (a water source). Wound exudate is variable patient to patient, so an average amount of 101 mEq/L chloride anions was used. The medicinal clay of Example 1 was analyzed for cations, which may interact with the chloride in wound exudate. Table 5 describes an approximate amount of ions present the exemplary clay composition of the wound dressing (4×4 inch pad), silver added into the wound dressing for delivery with the clay, and wound exudate, as well as the amount of each in the exemplary wound dressing and wound exudate (grams). […] A skilled artisan will appreciate from the disclosure of the calculations that such a minimum effective amount can vary based on an exudate sample. Accordingly, the calculated atoms and weight (g) in Table 5 can have a variation of about ±30%, ±25%, ±20%, ±15%, or ±10%. The exemplary wound dressings comprise from about 0.1 to about 2.5 grams of the clay composition, preferably from about 0.2 to about 0.8 grams of the clay composition. […]

SMILES	Lattice Energy [1]	silver in the dressing that chloride could bind prior to release [2]
[Cl][Ag] [AgCl]	187 kcal/mol	–
[Cl][Al]([Cl])[Cl] [AlCl3]	1228 kcal/mol	–
[Ca+2].[Cl-].[Cl-] [CaCl2]	542.1 kcal/mol	–
[Cl][Fe][Cl] [FeCl2]	614 kcal/mol	–
[Cl][Fe]([Cl])[Cl] [FeCl3]	1282 kcal/mol	–
[Cl-].[K+] [KCl]	168 kcal/mol	–
[Cl-].[Cl-].[Mg+2] [MgCl2]	592 kcal/mol	–
[Cl][Mn][Cl] [MnCl2]	599.9 kcal/mol	–
[Cl-].[Na+] [NaCl]	184 kcal/mol	–
[Ag+] [silver]	–	72%
